Laboratory results from patent publication USRE47689E1, “Compounds for treating spinal muscular atrophy” (PTC Therapeutics, Inc., priority 2011, dated 2019).

Assays:
[1] = system: full length and Δ7 SMN2 mRNAs; experiment: SMN2 mRNA RT-qPCR splicing assay in animal tissues; format: in vivo, mouse; details: C/C-allele SMA mice, brain and muscle, 10 mg/kg oral gavage twice per day for 10 days
Experimental: The reverse transcription-quantitative PCR-based (RT-qPCR) assay is used to quantify the levels of the full length and Δ7 SMN2 mRNAs in tissues from mice treated with test compound.
Protocol. C/C-allele SMA mice are treated by oral gavage two times per day for 10 days with test compounds resuspended in 0.5% HPMC and 0.1% Tween-80. Tissue samples were collected and snap frozen for RNA purification.
Tissue samples (20-40 mg) are homogenized in QIAzol Lysis Reagent for 2 minutes at 20 Hz in the TissueLyser II using one stainless steel bead. After addition of chloroform, the homogenate is separated into aqueous and organic phases by centrifugation. RNA partitioned to the upper, aqueous phase is extracted and ethanol is added to provide appropriate binding conditions. The sample is then applied to the RNeasy spin column from the RNeasy Mini Kit, where total RNA binds to the membrane. The RNA is eluted in RNase-free water then stored at −20° C. and subsequently analyzed using the TaqMan RT-qPCR on the 7900HT Thermocycler. Total RNA is diluted ten fold and 2.5 μL of the diluted sample is added to the TaqMan RT-qPCR mixture.
SMN2 spliced products are identified using the following primers and probes in Table 7. Primer SMN FL Forward B (SEQ ID NO. 7) hybridizes to a nucleotide sequence in exons 7 and 8, primer SMN Δ7 Forward B (SEQ ID NO. 8) hybridizes to a nucleotide sequence in exons 6 and 8, primer SMN Reverse B (SEQ ID NO. 9) hybridizes to a nucleotide sequence in exon 8, probe SMN Probe B (SEQ ID NO. 10) hybridizes to a nucleotide sequence in exon 8. These primers and probe hybridize to nucleotide sequences common to human SMN1 and SMN2 mRNAs. Since the SMA patient cells used in Example 5 contain only the SMN2 gene, RT-qPCR can quantify only SMN2 full-length and Δ7 mRNAs.
The SMN forward and reverse primers are used at final concentrations of 0.4 μM. The SMN probe is used at a final concentration of 0.15 μM. The SMN-GAPDH Mix (10 μL total volume) is prepared by combining 5 μL of 2×RT-PCR buffer, 0.4 μL of 25×RT-PCR enzyme mix, 0.5 μL of 20×GAPDH primer-probe mix, 1.505 μL of water, 2.5 μL of RNA solution, 0.04 μL of 100 μM forward primer, 0.04 μL of 100 μM reverse primer, and 0.015 μL of 100 μM SMN probe. […]
The increase of SMN2 FL and decrease in SMN2 Δ7 mRNAs relative to those in tissues from animals treated with vehicle control are determined from real-time PCR data using a modified ΔΔCt method (as described in Livak and Schmittgen, Methods, 2001, 25:402-8). The amplification efficiency E is calculated from the slope of the amplification curve for SMN2 FL, SMN2 Δ7, and GAPDH individually. The abundances of SMN2 FL, SMN2 Δ7, and GAPDH are then calculated as (1+E)^−Ct, where Ct is the threshold value for each amplicon. […]

Smn protein = Smn protein assay in cultured cells (SMN HTRF); format: cell-based, human; details: 48 hours; for Smn protein expression: SMA Type 1 patient fibroblast cells, SMN HTRF assay; for maximum fold (Fold) increase of Smn protein: SMA patient fibroblast cells, 7-point concentration data, fold increase relative to vehicle control (SMN HTRF)
Summary of the method: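 Smn in SMA fibroblast lysates, measured by anti-SMN HTRF after 48 h compound exposure; EC1.5x from fold change over vehicle.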

[2] = system: SMA Δ7 homozygous knockout mice; experiment: Body weight of neonatal Δ7 SMA mice; format: in vivo, mouse; details: IP QD from PND 3, then orally BID until study end, compared to vehicle
Experimental: The change in body weight of neonatal SMA mice is used to determine whether treatment with a test compound improves body weight.
Protocol. SMA Δ7 homozygous knockout mice are dosed intraperitoneally (IP) with test compound or vehicle (100% DMSO) once per day (QD) from postnatal day (PND) 3 until the dose regimen is switched to an oral dose twice per day (BID) in 0.5% hydroxypropylmethyl cellulose (HPMC) with 0.1% Tween-80 at a dose 3.16-fold higher than the dose used for IP. Body weights of SMA Δ7 mice treated with test compound or vehicle and age matched heterozygous mice are recorded every day.

SMILES | SMN2 FL mRNA relative to vehicle [1] | SMN2 Δ7 mRNA relative to vehicle [1] | Smn protein expression (Smn protein) | maximum fold (Fold) increase of Smn protein (Smn protein) | body weight [2] | EC1.5x (concentration giving 1.5-fold Smn protein increase) (Smn protein; SMA Type 1 patient fibroblast cells (GM03813), 7-point concentration curve, SMN HTRF, concentration producing 1.5 times Smn protein vs DMSO vehicle control, read-out: EC1.5x for Smn protein expression)
CC(C)NCCc1ccc2cc(-c3nc4c(Cl)cccc4s3)c(=O)oc2c1 [Cpd 35, 3-(4-chloro-1,3-benzothiazol-2-yl)-7-[2-(propan-2-ylamino)ethyl]-2H-chromen-2-one] | substantially more SMN2 FL mRNA | less SMN2 Δ7 mRNA | dose dependent increase in Smn protein expression | * (maximum fold increase of ≤1.2) | improved compared to vehicle treated mice | –
CCN1CCN(c2ccc3cc(-c4cn5cc(C)nc(C)c5n4)c(=O)oc3c2)C[C@@H]1C [Cpd 626, 3-(6,8-dimethylimidazo[1,2-a]pyrazin-2-yl)-7-[(3S)-4-ethyl-3-methylpiperazin-1-yl]-2H-chromen-2-one] | substantially more SMN2 FL mRNA | less SMN2 Δ7 mRNA | dose dependent increase in Smn protein expression | **** (fold increase between >1.5 and ≤1.65) | improved compared to vehicle treated mice | < 300 nM
